Assay results published in patent publication US4000297A, “N-p-chlorobenzoyl tryptophane, salts and compositions thereof” (priority 1971, dated 1976).
Structures can show the parent of a compound that is named as a salt. Where two headings read alike, the source gives them in different places.

What was measured:
Type in all cases: in vivo
[1] = Acute toxicity (DL50) in the mouse; settings: in vivo, iv (Table 1), read-out: DL50 value
Source text: *1 DL50 in the mouse mg/kg iv.
Examples of differences between toxicity (DL50 in
the mouse) by intravenous administration and oral
administration in mg/kg. Variation in therapeutic

[2] = test system: gastric secretion; test: Anti-secretive activity in the rat with lig. pylorus, iv; settings: read-out: Activity A: anti-secretive activity ED50
[3] = test system: gastric secretion; test: Anti-secretive activity in the rat by gastric stimulus, oral; settings: oral (Table 1), read-out: Activity B: anti-secretive activity ED50
Method: *3 Anti-secretive activity in the rat by gastric stimulus, ED50 mg/k

[4] = test system: gastric secretion; test: Comparison of antisecretive activity, rats with tied pylorus, oral aqueous suspension; settings: oral
Method: (*)The antisecretive activity is defined as the dose in mg/kg of body
weight of the animal, which reduces the gastric secretion by 50%. The
evaluation is effected by considering the decrease in quantity of secrete
gastric juice as compared with controls. Rats of an average weight of 200
± 20 grams are employed of which the lower part of the stomach at the
level of the pylorus is tied to collect the gastric juice during the
indicated periods. The preparations are administered orally in the form o

[5] = rat with lig. pylorus, iv (Table 1)

Compound	LD50 [1] [mg/kg]	ED50 ([2]; Rattus norvegicus, iv) [mg/kg]	ED50 [3] [mg/kg]	ED50 [2, 5] [mg/kg]	LD50 ([1]; iv) [mg/kg]	Antisecretive activity (dose which reduces the gastric secretion by 50%) ([4]; 2.5 hrs, 150 min) [mg/kg]	Antisecretive activity (dose which reduces the gastric secretion by 50%) ([4]; 5 hrs, 300 min) [mg/kg]	Antisecretive activity (dose which reduces the gastric secretion by 50%) ([4]; 10 hrs, 600 min) [mg/kg]
Cc1ccc(C(=O)NC(Cc2c[nH]c3ccccc23)C(=O)O)cc1 (racemic) [Ex.23 (CR555), N-p-toluyl-DL-tryptophane]	340	204	172	–	–	–	–	–
O=C(NC(Cc1c[nH]c2ccccc12)C(=O)O)c1ccccc1Cl (racemic) [Ex.51 (CR618), N-o-chlorobenzoyl-DL-tryptophane]	1400	–	320	345	–	–	–	–
O=C(NC(Cc1c[nH]c2ccccc12)C(=O)O)OCc1ccc(Cl)cc1 (racemic) [Ex. 4 (CR463), N-p-chloro-carbobenzoxy-DL-tryptophane]	–	161	130	–	217	–	–	–
Nc1ccc(C(=O)N[C@@H](Cc2c[nH]c3ccccc23)C(=O)O)cc1 [CR 504 - Calcium salt]	–	–	–	–	–	1480	1865	> 2000
CCc1ccc(COC(=O)N[C@@H](Cc2c[nH]c3ccccc23)C(=O)O)cc1 [Ex.10 (CR500), N-p-ethyl-carbobenzoxy-L-tryptophane]	–	142	117	–	158	–	–	–
O=C(N[C@@H](Cc1c[nH]c2ccccc12)C(=O)O)OCc1ccc(C(F)(F)F)cc1 [Ex.11 (CR515), N-p-trifluoromethyl-carbobenzoxy-L-tryptophane]	–	112	92	–	175	–	–	–
O=C(N[C@@H](Cc1c[nH]c2ccccc12)C(=O)O)OCc1ccc(Cl)cc1Cl [Ex.13 (CR470), N-(2,4-dichloro)-carbobenzoxy-L-tryptophane]	–	–	97	130	170	–	–	–
O=C(N[C@@H](Cc1c[nH]c2ccccc12)C(=O)O)OCc1c(Cl)cccc1Cl [Ex.14 (CR495), N-(2,6-dichloro)-carbobenzoxy-L-tryptophane]	–	–	108	132	268	–	–	–
O=C(N[C@@H](Cc1c[nH]c2ccccc12)C(=O)O)OCc1cccc(Cl)c1Cl [Ex.15 (CR499), N-(2,3-dichloro)-carbobenzoxy-L-tryptophane]	–	–	60	100	175	–	–	–
O=C(N[C@@H](Cc1c[nH]c2ccccc12)C(=O)O)OCc1ccc(Cl)c(Cl)c1 [Ex.16 (CR469), N-(3,4-dichloro)-carbobenzoxy-L-tryptophane]	–	137	104	–	208	–	–	–
Cc1ccc(COC(=O)N[C@@H](Cc2c[nH]c3ccccc23)C(=O)O)cc1Cl [Ex.17 (CR497), N-(3-chloro-4-methyl)-carbobenzoxy-L-tryptophane]	–	231	196	–	190	–	–	–
O=C(N[C@@H](Cc1c[nH]c2ccccc12)C(=O)O)c1ccc(Br)cc1 [Ex.19 (CR503), N-p-bromo-benzoyl-L-tryptophane]	360	111	85	–	–	–	–	–
O=C(N[C@@H](Cc1c[nH]c2ccccc12)C(=O)O)c1ccc(C(F)(F)F)cc1 [Ex.20 (CR505), N-p-trifluoromethyl-benzoyl-L-tryptophane]	210	160	110	–	–	–	–	–
Cc1ccc(C(=O)N[C@H](Cc2c[nH]c3ccccc23)C(=O)O)cc1 [Ex.22 (CR556), N-p-toluyl-D-tryptophane]	365	354	190	–	–	–	–	–
N#Cc1ccc(C(=O)N[C@@H](Cc2c[nH]c3ccccc23)C(=O)O)cc1 [Ex.24 (CR512), N-p-cyano-benzoyl-L-tryptophane]	1450	500	360	–	–	–	–	–
O=C(N[C@@H](Cc1c[nH]c2ccccc12)C(=O)O)c1ccc(F)cc1 [Ex.25 (CR506), N-p-fluoro-benzoyl-L-tryptophane]	655	223	295	–	–	–	–	–
COc1ccc(C(=O)N[C@@H](Cc2c[nH]c3ccccc23)C(=O)O)cc1 [Ex.26 (CR507), N-p-methoxy-benzoyl-L-tryptophane]	1000	–	494	437	–	–	–	–
O=C(O)c1ccc(C(=O)N[C@@H](Cc2c[nH]c3ccccc23)C(=O)O)cc1 [Ex.27 (CR508), N-p-carboxy-benzoyl-L-tryptophane]	900	–	406	514	–	–	–	–
